Reference: paper PMC6522510 (Nature Communications, 2019)

What was measured:
Parameters in all cases: species or system AML cell lines (8); Primary HTS, single concentration about 10 uM, Cell Titer Glo viability; log10 luminescence, per cent inhibition relative to cycloheximide control
Settings in all cases: 72 h, relative to cycloheximide control, log10 luminescence; inhibitor
CHRF288-11 = tested on: CHRF288-11
CMK = tested on: CMK
CMS = tested on: CMS
M07e = tested on: M07e
ML-2 = tested on: ML-2
MOLM-13 = tested on: MOLM-13
MV4-11 = tested on: MV4-11
U937 = tested on: U937

Compound	CHRF288-11 %inh (CHRF288-11)	CMK %inh (CMK)	CMS %inh (CMS)	M07e %inh (M07e)	ML-2 %inh (ML-2)	MOLM-13 %inh (MOLM-13)	MV4-11 %inh (MV4-11)	U937 %inh (U937)
Nc1c(C(=O)c2cccc(-c3ccc[n+]([O-])c3)c2)cnn1-c1ccc(F)cc1F [SJ000581156-1]	0.7431%	6.727%	-0.9836%	5.956%	2.597%	3.379%	2.306%	3.963%
C/C(=C\c1ccc(C(=O)O)cc1)c1ccc2c(c1)C(C)(C)CCC2(C)C [SJ000288227-4, TTNPB | TTNPB (AROTINOID ACID)]	0.3991%	5.715%	11.71%	3.996%	2.308%	8.388%	20.2%	8.124%
O=C(Nc1n[nH]c2cc(-c3ccc(F)cc3)ccc12)C1CC1 [SJ000573147-1, VB100064-137A1]	23.72%	55.62%	-1.795%	6.083%	9.118%	13.56%	-2.4%	28.55%
COc1cc(C)c(N(C)C(=O)CN(C)C)cc1Nc1nc(Nc2cccc(F)c2C(N)=O)c2cc[nH]c2n1 [SJ000573042-1, N5326-79-1]	20.31%	3.967%	1.596%	-1.728%	14.99%	-1.115%	3.146%	-0.591%
Fc1ccc(-c2nc3n(c2-c2ccncc2)CCS3)cc1 [SJ000573131-1, RJA-12113-255 | U519/32/1 | SKF 86002]	-0.4036%	1.491%	-0.311%	0.008042%	0.01337%	-3.313%	-2.292%	-2.013%
CS(=O)(=O)Nc1ccc(-c2ccc3c(NC(=O)C4CC4)n[nH]c3c2)cc1 [SJ000573198-1, VB100064-183A1]	1.64%	0.4517%	-0.1456%	7.577%	1.388%	0.3925%	1.756%	-2.07%
CC(C)=CCC/C(C)=C/CC/C(C)=C/CC/C(C)=C/CO [SJ000561066-1, GERANYLGERANIOL]	0.138%	-0.4924%	3.121%	0.9105%	1.709%	-0.5636%	1.567%	2.958%
C[C@@H]1C[C@H]2[C@@H]3C[C@H](F)C4=CC(=O)C=C[C@]4(C)[C@@]3(F)[C@@H](O)C[C@]2(C)[C@@]1(O)C(=O)CO [SJ000287102-3, FLUMETHASONE]	4.435%	4.189%	2.822%	-0.252%	1.1%	0.6987%	-0.9154%	4.356%
CCCCOCCOc1nc(-c2ccc(C(=O)O)c(F)c2)sc1C [SJ000573474-2, AC 261066]	2.475e-05%	1.422%	12.33%	1.286%	0.9412%	4.751%	12.22%	6.265%
N#Cc1cnc2cnc(NCc3cccnc3)cc2c1Nc1ccc(F)c(Cl)c1 [SJ000773185-1, TPL2 KINASE INHIBITOR]	6.987%	12.32%	-1.042%	3.597%	-0.1066%	88.46%	3.7%	7.932%
NC(=O)c1cc(-c2ccncc2)cc(-c2ccccc2)c1N [SJ000573082-1, R11976/162/1]	4.55%	2.399%	3.949%	-1.265%	-0.3373%	11%	10.06%	14.29%
NS(=O)(=O)c1cc2c(cc1Cl)NCNS2(=O)=O [SJ000285785-7, HYDROCHLOROTHIAZIDE]	2.834%	2.395%	1.584%	-2.196%	4.295%	5.809%	1.232%	-0.1321%
c1ccc(-c2n[nH]cc2-c2ccnc(-c3ccc(OCCN4CCOCC4)cc3)c2)nc1 [SJ000573279-1, FVLN/241/86/2]	1.18%	0.1656%	-2.932%	-4.621%	-0.6736%	4.641%	1.132%	-1.579%
C[C@@H](Oc1cc(-n2cnc3ccc(OCC4CCN(C)CC4)cc32)sc1C(N)=O)c1ccccc1Cl [SJ000573039-1, U21976/12/1]	126.6%	58.58%	55.73%	70.45%	55.39%	92.23%	68.81%	67.65%
N#Cc1c(C(=O)c2ccccc2)cnn1-c1ccccc1 [SJ000581131-1]	0.7045%	-0.4032%	1.498%	8.327%	0.5024%	1.329%	2.305%	-0.2486%
Nc1nonc1-c1nc2cnccc2n1C1CC1 [SJ000573161-1, SD100950-085A1]	4.079%	26.4%	4.949%	-4.33%	6.372%	2.819%	17.34%	17.71%
COc1ccc(-c2ccncc2)cc1C(N)=O [SJ000573127-1, R12444/16/1]	-1.562%	5.063%	5.051%	1.948%	2.021%	4.454%	-1.177%	2.206%
c1ccc(Oc2ccc(Nc3ncc(-c4ccccc4)o3)cc2)cc1 [SJ000573154-1, U15924/95/2]	-6.587%	-2.277%	-3.51%	-0.6223%	0.5718%	-2.365%	-2.884%	3.231%
